Results reported in publication PMC11714206, “Massively Parallel Screening of Toll/Interleukin‐1 Receptor (TIR)‐Derived Peptides Reveals Multiple Toll‐Like Receptors (TLRs)‐Targeting Immunomodulatory Peptides” (Advanced Science, 2024).

Target: T1, MAL^TIR (Homo sapiens, UniProt P58753)
T1 construct: MAL (residues 79–221); 6xHis; made in house; host or cells: E. coli BL21 (DE3)
Assay: T‐Surf phage library (P8 and P3) selection against MAL^TIR, four rounds, NGS read counts
Assay type: binding
Conditions: for P8_MAL Rank (after) / P8_MAL Rank (before): P8 library; for Population: 4th round of selection against MAL TIR, share of NGS reads; for P3_MAL Rank (after) / P3_MAL Rank (before): P3 library
Protocol: T‐Surf libraries were screened against the immobilized TIR domains of two major human TLR adaptor proteins, MAL^TIR and MyD88^TIR, allowing cross‐species selection of TIR‐binding motifs with 190 946 TIR‐derived peptides in a single binding assay (Scheme 1). Enriched phage pools from the fourth round of selection were analyzed using NGS after barcoding the peptide‐coding regions of the phage pools.
Phage display screening was performed by coating two wells of a 96‐well plate (Maxisorp, Thermo Fisher Scientific) with 100 µL of 5 µg mL^−1 TIR domains overnight; then, the coated wells were blocked with 200 µL of blocking buffer (0.2% BSA in PBS) and set aside for 1 h at 4 °C with gentle shaking. Next, 100 µL of the phage library was added to the wells and incubated for 1 h at room temperature (RT; 20 – 22 °C) with gentle shaking. The plate was washed four times with PBS containing 0.5% Tween‐20; the bound phages were eluted by adding 100 µL of 100 mM HCl to each well. The elute was neutralized with 10 µL of 1.0 M Tris‐HCl (pH 11.0). E. coli TG1 cells were grown to the log phase (A600 = ≈0.6), and 1 mL of the culture was incubated with 100 µL of the eluted phages for 30 min at 37 °C, with shaking at 200 rpm. Next, 1 µL of M13KO7 helper phages was added, followed by incubation for 45 min at 37 °C, with shaking. Subsequently, the cells were transferred to 25 mL of 2× yeast extract tryptone/carbenicillin/kanamycin medium and incubated overnight at 37 °C with shaking at 200 rpm. The amplified phages were precipitated with 20% PEG‐8000/2.5 M NaCl to be used for the next round of selection.
The naïve T‐Surf libraries in P8 and P3 and the enriched phage pools after four rounds were barcoded for NGS as previously described.^[ [59] ^] Briefly, 5 µL of the phage pool was used as a template for 20 cycles of a 50 µL PCR reaction using […] each of forward and reverse barcoded primers and PrimeSTAR Max DNA Polymerase. The PCR products were purified using Expin Gel SV (GeneAll). The NGS samples were quantified using qPCR, following the qPCR Quantification Protocol Guide (KAPA Library Quantification kits for Illumina Sequencing Platform), and qualified using the TapeStation High Sensitivity D1000 ScreenTape (Agilent Technologies). The indexed libraries were further sequenced by Macrogen (Seoul, Republic of Korea) using the NovaSeq platform (Illumina) with 100 bp paired‐end reads. The reads were demultiplexed by barcodes and filtered for an average Phred quality score of at least 30, followed by trimming the flanking consensus sequences using Cutadapt (version 2.3). Peptide sequence populations were analyzed according to the read counts.

[1] = selection against MAL, rank after grouping
[2] = selection against MAL, rank before grouping
[3] = P8_MAL: rank by count after grouping
[4] = P8_MAL: rank by count before grouping
[5] = selection against MAL TIR, rank by count after grouping
[6] = selection against MAL TIR, rank by count before grouping
[7] = selection against MAL, rank by count after grouping
[8] = selection against MAL, rank by count before grouping
[9] = 4R selection against MAL, rank after grouping
[10] = 4R selection against MAL, rank before grouping
[11] = P8_MAL pool: P8 T-Surf phage library
[12] = P3_MAL: rank by count after grouping
[13] = P3_MAL: rank by count before grouping

T1 sequence (P58753 79-221): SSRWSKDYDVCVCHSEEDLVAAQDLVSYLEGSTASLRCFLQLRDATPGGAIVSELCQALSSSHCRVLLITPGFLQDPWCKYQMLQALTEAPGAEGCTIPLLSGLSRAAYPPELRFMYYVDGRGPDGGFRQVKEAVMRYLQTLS

AFLNTLLKNLTRPPNF
P8_MAL Rank (after) [1]: 562 | P8_MAL Rank (before) [2]: 1912

AFLWAQLNSVLGNPTM
Rank (after) [3]: 156 | Rank (before) [4]: 1778

AFLWAYLNSVTHPPTF
Rank (after) [3]: 471 | Rank (before) [4]: 1796

AFLWTQLKNVLGNPTF
Rank (after) [3]: 408 | Rank (before) [4]: 1766

AFLWTQLKSLLRNTTM
P8_MAL Rank (after) [1]: 534 | P8_MAL Rank (before) [2]: 1765

AFLWTQLKSVLGNPTM
P8_MAL Rank (after) [5]: 242 | P8_MAL Rank (before) [6]: 1764

AFLWTYLSNLMHQPTF
P8_MAL Rank (after) [1]: 483 | P8_MAL Rank (before) [2]: 1797

AFLYAFLINLTHPTNI
Rank (after) [3]: 142 | Rank (before) [4]: 1812

AFLYAFLISLTHTTTF
P8_MAL Rank (after) [1]: 571 | P8_MAL Rank (before) [2]: 1798

AFLYAFLKNLTHPTNF
P8_MAL Rank (after) [7]: 683 | P8_MAL Rank (before) [8]: 1813

AFLYAFLNNLTHPTTF
Rank (after) [3]: 139 | Rank (before) [4]: 1767

AFLYDFLINLTHQTNF
Rank (after) [3]: 159 | Rank (before) [4]: 1814

AFLYLSDQSDPSDQF
P8_MAL Rank (after) [5]: 237 | P8_MAL Rank (before) [6]: 1915

AFLYNFFNDLTHPTIY
P8_MAL Rank (after) [9]: 582 | P8_MAL Rank (before) [10]: 1890

AFLYNFLLNLTHKPTF
P8_MAL Rank (after) [9]: 671 | P8_MAL Rank (before) [10]: 1891

AFLYPFLINLTHPTIP
P8_MAL Rank (after) [1]: 512 | P8_MAL Rank (before) [2]: 1816

AFLYSFLTNLTHPTEN
P8_MAL Rank (after) [1]: 494 | P8_MAL Rank (before) [2]: 1818

AFLYSLLFNRTHPNYF
P8_MAL Rank (after) [7]: 702 | P8_MAL Rank (before) [8]: 1809

AFLYSLLISLPETANI
P8_MAL Rank (after) [1]: 543 | P8_MAL Rank (before) [2]: 1810

AFLYTFDQSDPSDQF
P8_MAL Rank (after) [1]: 509 | P8_MAL Rank (before) [2]: 1822

AFLYTFLFNLTHQTNS
P8_MAL Rank (after) [9]: 590 | P8_MAL Rank (before) [10]: 1883

AFLYTFLGHLYNALVQAGIH
P8_MAL Rank (after) [1]: 497 | P8_MAL Rank (before) [2]: 1828

AFLYTFLIILPIRPNF
P8_MAL Rank (after) [9]: 589 | P8_MAL Rank (before) [10]: 1835

AFLYTFLIILTHPINF
P8_MAL Rank (after) [7]: 688 | P8_MAL Rank (before) [8]: 1833

AFLYTFLIKLTHPPNF
Rank (after) [3]: 101 | Rank (before) [4]: 1862

AFLYTFLINDPSDQF
P8_MAL Rank (after) [5]: 214 | P8_MAL Rank (before) [6]: 1836

AFLYTFLINLAHPTNF
Population [11]: 0.00278%

AFLYTFLINLPHTNNF
P8_MAL Rank (after) [9]: 628 | P8_MAL Rank (before) [10]: 1838

AFLYTFLINLTHKPTF
P8_MAL Rank (after) [5]: 228 | P8_MAL Rank (before) [6]: 1866

AFLYTFLINLTHLPNF
Rank (after) [3]: 95 | Rank (before) [4]: 1842

AFLYTFLINLTHPNNF
Population [11]: 0.00463%

AFLYTFLINLTHPPI
Rank (after) [3]: 190 | Rank (before) [4]: 1854

AFLYTFLINLTHPQF
P8_MAL Rank (after) [5]: 275 | P8_MAL Rank (before) [6]: 1852

AFLYTFLINLTHPSNF
Population [11]: 0.00309%

AFLYTFLINLTHPTIH
Rank (after) [3]: 161 | Rank (before) [4]: 852

AFLYTFLINLTHPTKV
P8_MAL Rank (after) [1]: 514 | P8_MAL Rank (before) [2]: 1851

AFLYTFLINLTHPTNL
Population [11]: 0.00371%

AFLYTFLINLTHPTNS
Population [11]: 0.0034%

AFLYTFLINLTHPTTF
Population [11]: 0.0034%

AFLYTFLINLTHQTNF
Population [11]: 0.0034%

AFLYTFLINLTIRPIX
Population [11]: 0.00371%

AFLYTFLINLTPPTEY
Rank (after) [3]: 401 | Rank (before) [4]: 1858

AFLYTFLINLTRPTNF
Population [11]: 0.0034%

AFLYTFLINLTRQTNF
Rank (after) [3]: 147 | Rank (before) [4]: 1837

AFLYTFLINPTHPTNF
Population [11]: 0.00309%

AFLYTFLINPTHPTNS
P8_MAL Rank (after) [5]: 255 | P8_MAL Rank (before) [6]: 1859

AFLYTFLINRTHPTNF
Population [11]: 0.0034%

AFLYTFLISLTHPTNF
Population [11]: 0.00402%

AFLYTFLKNLMRKPTF
Rank (after) [3]: 422 | Rank (before) [4]: 1874

AFLYTFLKNLPHPTNI
P8_MAL Rank (after) [7]: 709 | P8_MAL Rank (before) [8]: 1873

AFLYTFLKNLTHPTTF
Rank (after) [3]: 97 | Rank (before) [4]: 1875

AFLYTFLKNLTHTPTF
Rank (after) [3]: 410 | Rank (before) [4]: 1876

AFLYTFLLNLTHPTHF
Rank (after) [3]: 162 | Rank (before) [4]: 1829

AFLYTFLLNLTHPTNL
P8_MAL Rank (after) [5]: 223 | P8_MAL Rank (before) [6]: 1830

AFLYTFLLNLTHQPTF
P8_MAL Rank (after) [1]: 485 | P8_MAL Rank (before) [2]: 1831

AFLYTFLNNLIHPTTF
Rank (after) [3]: 145 | Rank (before) [4]: 1868

AFLYTFLNNLTHPTKF
Rank (after) [3]: 94 | Rank (before) [4]: 1870

AFLYTFLNNLTHPTNF
Population [11]: 0.00309%

AFLYTFLNNLTHTTNI
P8_MAL Rank (after) [1]: 536 | P8_MAL Rank (before) [2]: 1872

AFLYTFLNTLTHPTNF
P8_MAL Rank (after) [5]: 209 | P8_MAL Rank (before) [6]: 1867

AFLYTFLVNLTHPPNF
Rank (after) [3]: 134 | Rank (before) [4]: 1827

AFLYTFLVNLTHPTMF
Rank (after) [3]: 468 | Rank (before) [4]: 1823

AFLYTFMINLTHPTTF
Rank (after) [3]: 126 | Rank (before) [4]: 1889

AFLYTFPINLTHPTNF
Population [11]: 0.0034%

AFLYTLLINLTHPTNF
Population [11]: 0.00432%

AFLYTLLNNVLRNPTI
P8_MAL Rank (after) [1]: 556 | P8_MAL Rank (before) [2]: 1888

AFLYTVLINLTHTTYF
P8_MAL Rank (after) [1]: 517 | P8_MAL Rank (before) [2]: 1886

AFMYTFLINLTHPNNF
P8_MAL Rank (after) [7]: 681 | P8_MAL Rank (before) [8]: 1923

AFPDTFLIKLPHPTNV
P8_MAL Rank (after) [9]: 611 | P8_MAL Rank (before) [10]: 1918

AFQYTFLFNLTHPTNF
Rank (after) [3]: 125 | Rank (before) [4]: 1920

AFRYTFLIILTDPTNF
P8_MAL Rank (after) [9]: 599 | P8_MAL Rank (before) [10]: 1916

AFSNNEYKCVETALMN
Rank (after) [12]: 467 | Rank (before) [13]: 1806

AFTGHLHRYLVQRGV
Rank (after) [12]: 121 | Rank (before) [13]: 408

AFYGPLLSLILRDTKM
P8_MAL Rank (after) [9]: 641 | P8_MAL Rank (before) [10]: 1790

AFYWAQLKIVLGNPTM
P8_MAL Rank (after) [7]: 686 | P8_MAL Rank (before) [8]: 1786

AFYWAQLNSVLRDTTM
P8_MAL Rank (after) [1]: 492 | P8_MAL Rank (before) [2]: 1785

AILYTFLINLTLPANF
P8_MAL Rank (after) [7]: 682 | P8_MAL Rank (before) [8]: 1576

ALCWAQLKIVLANLPI
P8_MAL Rank (after) [5]: 271 | P8_MAL Rank (before) [6]: 1926

ALFWAQLKCVMGNPAM
P8_MAL Rank (after) [7]: 705 | P8_MAL Rank (before) [8]: 1932

ALFWEQLRTVLGKLTM
Rank (after) [3]: 435 | Rank (before) [4]: 1924

ALHNAFWDRLWTKLAP
P3_MAL Rank (after) [1]: 544 | P3_MAL Rank (before) [2]: 1842

ALLNNFLIKLTHPSII
Rank (after) [3]: 448 | Rank (before) [4]: 1959

ALLYPFLINLTHPTHF
P8_MAL Rank (after) [1]: 522 | P8_MAL Rank (before) [2]: 1957

ALLYTFLIHLTHPTNS
P8_MAL Rank (after) [9]: 594 | P8_MAL Rank (before) [10]: 1929

ALLYTFLINLTHPTNF
Population [11]: 0.0034%

ALPYTFLINLTHPTTF
P8_MAL Rank (after) [1]: 503 | P8_MAL Rank (before) [2]: 1961

ALQYTILINLTNPTNF
P8_MAL Rank (after) [9]: 665 | P8_MAL Rank (before) [10]: 1962

ARFKDMIINKWRTALT
P8_MAL Rank (after) [5]: 195 | P8_MAL Rank (before) [6]: 869

ARFKDMIINKWRTALTQAAN
P3_MAL Rank (after) [1]: 513 | P3_MAL Rank (before) [2]: 1847

ARLPAICIVIWCSVAX
Population (P3_MAL pool: P3 T-Surf phage library): 0.00376%

ASLYTFLINLTHPTNF
Population [11]: 0.0034%

AVLYTFLINLTHPTKF
Rank (after) [3]: 460 | Rank (before) [4]: 1954

AVLYTFLINLTHPTNF
Population [11]: 0.00402%
